Source: PubChem BioAssay AID2060623 (Molecular Pharmacology Branch, DTP, NCI, 2025)
pIC50: −log10 of the molar value.

Tested on: 227483-062-R1-J1-PDC complex spheroids with HUVEC/MSC, viability
Experiment: Anticancer human tumor 227483-062-R1-J1-PDC patient-derived pancreatic carcinoma cell line growth inhibition [CLK]
Conditions: for pIC50: curve of first compound; for viability, T/C: stronger effect = lower value
Procedure, shortened: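 Patient-derived tumor cells grown as complex spheroids with HUVEC endothelial cells and mesenchymal stem cells, treated with drug combinations. Concentrations descend in half-log steps from near clinical Cmax, or from 10 microM if Cmax unknown.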

[1] = second compound 0.0316 µM, first compound 0.0316 µM
[2] = second compound 0.0316 µM, first compound 0.1 µM
[3] = second compound 0.0316 µM, first compound 0.316 µM
[4] = second compound 0.0316 µM, first compound 1 µM
[5] = second compound 0.1 µM, first compound 0.0316 µM
[6] = second compound 0.1 µM, first compound 0.1 µM
[7] = second compound 0.1 µM, first compound 0.316 µM
[8] = second compound 0.1 µM, first compound 1 µM
[9] = second compound 0.316 µM, first compound 0.0316 µM
[10] = second compound 0.316 µM, first compound 0.1 µM
[11] = second compound 0.316 µM, first compound 0.316 µM
[12] = second compound 0.316 µM, first compound 1 µM
[13] = second compound 1 µM, first compound 0.0316 µM
[14] = second compound 1 µM, first compound 0.1 µM
[15] = second compound 1 µM, first compound 0.316 µM
[16] = second compound 1 µM, first compound 1 µM
[17] = second compound 3.16 µM, first compound 0.0316 µM
[18] = second compound 3.16 µM, first compound 0.1 µM
[19] = second compound 3.16 µM, first compound 0.316 µM
[20] = second compound 3.16 µM, first compound 1 µM
[21] = second compound 10 µM, first compound 0.0316 µM
[22] = second compound 10 µM, first compound 0.1 µM
[23] = second compound 10 µM, first compound 0.316 µM
[24] = second compound 10 µM, first compound 1 µM
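Further: spheroids exposed to compounds for seven days before readout.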
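Wherever viability, T/C is given: percent of DMSO vehicle control luminescence as 100% viability.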

`C=CC(=O)Nc1cc(Nc2nccc(-c3cn(C)c4ccccc34)n2)c(OC)cc1N(C)CCN(C)C` + CN1CCN(c2cc(C(=O)Nc3cc4cc(-c5cnn(C)c5)ccc4cn3)ccn2)CC1 gave a pIC50 (second compound 0.0316 µM) of less than 6.52, a pIC50 (second compound 0.1 µM) of less than 6.52 and a pIC50 (second compound 0.316 µM) greater than 9.02. For the same compound, the pIC50 (second compound 1 µM) was greater than 9.02, the pIC50 (second compound 3.16 µM) was greater than 9.02 and the pIC50 (second compound 10 µM) was greater than 9.02. It also gave a viability, T/C (second compound 0.0316 µM, first compound 0.000949 µM) of 101%, a viability, T/C (second compound 0.0316 µM, first compound 0.003 µM) of 104% and a viability, T/C (second compound 0.0316 µM, first compound 0.00949 µM) of 117%. It also gave a viability, T/C (second compound 0.0316 µM, first compound 0.03 µM) of 99.1%, a viability, T/C (second compound 0.0316 µM, first compound 0.0949 µM) of 87.5% and a viability, T/C (second compound 0.0316 µM, first compound 0.3 µM) of 79.2%. For the same compound, the viability, T/C (second compound 0.1 µM, first compound 0.000949 µM) was 71.5%, the viability, T/C (second compound 0.1 µM, first compound 0.003 µM) was 64.6% and the viability, T/C (second compound 0.1 µM, first compound 0.00949 µM) was 61.5%. It also gave a viability, T/C (second compound 0.1 µM, first compound 0.03 µM) of 77%, a viability, T/C (second compound 0.1 µM, first compound 0.0949 µM) of 68% and a viability, T/C (second compound 0.1 µM, first compound 0.3 µM) of 56%. The viability, T/C (second compound 0.316 µM, first compound 0.000949 µM) was 4.77%, the viability, T/C (second compound 0.316 µM, first compound 0.003 µM) was 5.57% and the viability, T/C (second compound 0.316 µM, first compound 0.00949 µM) was 5.48%. It also gave a viability, T/C (second compound 0.316 µM, first compound 0.03 µM) of 5.73%, a viability, T/C (second compound 0.316 µM, first compound 0.0949 µM) of 8.02% and a viability, T/C (second compound 0.316 µM, first compound 0.3 µM) of 4.25%. It also gave a viability, T/C (second compound 1 µM, first compound 0.000949 µM) of 3.69%, a viability, T/C (second compound 1 µM, first compound 0.003 µM) of 1.6% and a viability, T/C (second compound 1 µM, first compound 0.00949 µM) of 2.26%. It also gave a viability, T/C (second compound 1 µM, first compound 0.03 µM) of 4.39%, a viability, T/C (second compound 1 µM, first compound 0.0949 µM) of 2.66% and a viability, T/C (second compound 1 µM, first compound 0.3 µM) of 1.57%. It also gave a viability, T/C (second compound 3.16 µM, first compound 0.000949 µM) of 3.65%, a viability, T/C (second compound 3.16 µM, first compound 0.003 µM) of 4.21% and a viability, T/C (second compound 3.16 µM, first compound 0.00949 µM) of 3%. It also gave a viability, T/C (second compound 3.16 µM, first compound 0.03 µM) of 7.42%, a viability, T/C (second compound 3.16 µM, first compound 0.0949 µM) of 2.8% and a viability, T/C (second compound 3.16 µM, first compound 0.3 µM) of 5.59%. The viability, T/C (second compound 10 µM, first compound 0.000949 µM) was 3.23%, the viability, T/C (second compound 10 µM, first compound 0.003 µM) was 6.58% and the viability, T/C (second compound 10 µM, first compound 0.00949 µM) was 2.57%. It also gave a viability, T/C (second compound 10 µM, first compound 0.03 µM) of 4.96%, a viability, T/C (second compound 10 µM, first compound 0.0949 µM) of 2.09% and a viability, T/C (second compound 10 µM, first compound 0.3 µM) of 1.83%.

In the case of `CCN1CCN(Cc2ccc(Nc3ncc(F)c(-c4cc(F)c5nc(C)n(C(C)C)c5c4)n3)nc2)CC1` + CN1CCN(c2cc(C(=O)Nc3cc4cc(-c5cnn(C)c5)ccc4cn3)ccn2)CC1, the pIC50 (second compound 0.0316 µM) was less than 6.00, the pIC50 (second compound 0.1 µM) was less than 6.00 and the pIC50 (second compound 0.316 µM) was greater than 8.50. For the same compound, the pIC50 (second compound 1 µM) was greater than 8.50, the pIC50 (second compound 3.16 µM) was greater than 8.50 and the pIC50 (second compound 10 µM) was greater than 8.50. For the same compound, the viability, T/C (second compound 0.0316 µM, first compound 0.00316 µM) was 97.5%, the viability, T/C (second compound 0.0316 µM, first compound 0.01 µM) was 93.4% and the viability, T/C [1] was 101%. The viability, T/C [2] was 93.4%, the viability, T/C [3] was 87.6% and the viability, T/C [4] was 72.4%. It also gave a viability, T/C (second compound 0.1 µM, first compound 0.00316 µM) of 65.8%, a viability, T/C (second compound 0.1 µM, first compound 0.01 µM) of 64.7% and a viability, T/C [5] of 64.5%. It also gave a viability, T/C [6] of 72.9%, a viability, T/C [7] of 72.6% and a viability, T/C [8] of 52%. For the same compound, the viability, T/C (second compound 0.316 µM, first compound 0.00316 µM) was 6.05%, the viability, T/C (second compound 0.316 µM, first compound 0.01 µM) was 8.49% and the viability, T/C [9] was 8.54%. The viability, T/C [10] was 9.66%, the viability, T/C [11] was 13% and the viability, T/C [12] was 6.42%. The viability, T/C (second compound 1 µM, first compound 0.00316 µM) was 1.57%, the viability, T/C (second compound 1 µM, first compound 0.01 µM) was 2.07% and the viability, T/C [13] was 2.83%. For the same compound, the viability, T/C [14] was 2.75%, the viability, T/C [15] was 4.4% and the viability, T/C [16] was 5.61%. The viability, T/C (second compound 3.16 µM, first compound 0.00316 µM) was 3.72%, the viability, T/C (second compound 3.16 µM, first compound 0.01 µM) was 6.23% and the viability, T/C [17] was 5.4%. It also gave a viability, T/C [18] of 5.18%, a viability, T/C [19] of 4.88% and a viability, T/C [20] of 8.09%. The viability, T/C (second compound 10 µM, first compound 0.00316 µM) was 3.9%, the viability, T/C (second compound 10 µM, first compound 0.01 µM) was 2.79% and the viability, T/C [21] was 4.22%. The viability, T/C [22] was 4.63%, the viability, T/C [23] was 2.76% and the viability, T/C [24] was 2.39%.

`Nc1ccccc1NC(=O)c1ccc(CNC(=O)OCc2cccnc2)cc1` + CN1CCN(c2cc(C(=O)Nc3cc4cc(-c5cnn(C)c5)ccc4cn3)ccn2)CC1 was tested, and the pIC50 (second compound 0.0316 µM) was less than 5.00, the pIC50 (second compound 0.1 µM) was 5.98 and the pIC50 (second compound 0.316 µM) was greater than 7.50. For the same compound, the pIC50 (second compound 1 µM) was greater than 7.50, the pIC50 (second compound 3.16 µM) was greater than 7.50 and the pIC50 (second compound 10 µM) was greater than 7.50. It also gave a viability, T/C [1] of 106%, a viability, T/C [2] of 108% and a viability, T/C [3] of 107%. It also gave a viability, T/C [4] of 126%, a viability, T/C (second compound 0.0316 µM, first compound 3.16 µM) of 131% and a viability, T/C (second compound 0.0316 µM, first compound 10 µM) of 51.6%. For the same compound, the viability, T/C [5] was 63.7%, the viability, T/C [6] was 76% and the viability, T/C [7] was 57.4%. It also gave a viability, T/C [8] of 48.6%, a viability, T/C (second compound 0.1 µM, first compound 3.16 µM) of 36.9% and a viability, T/C (second compound 0.1 µM, first compound 10 µM) of 17.1%. For the same compound, the viability, T/C [9] was 4.44%, the viability, T/C [10] was 6.25% and the viability, T/C [11] was 7.44%. It also gave a viability, T/C [12] of 3.95%, a viability, T/C (second compound 0.316 µM, first compound 3.16 µM) of 1.6% and a viability, T/C (second compound 0.316 µM, first compound 10 µM) of 1.34%. For the same compound, the viability, T/C [13] was 2.7%, the viability, T/C [14] was 1.53% and the viability, T/C [15] was 1.99%. For the same compound, the viability, T/C [16] was 2.47%, the viability, T/C (second compound 1 µM, first compound 3.16 µM) was 1.45% and the viability, T/C (second compound 1 µM, first compound 10 µM) was 1.58%. The viability, T/C [17] was 3.26%, the viability, T/C [18] was 4.66% and the viability, T/C [19] was 2.26%. For the same compound, the viability, T/C [20] was 2.68%, the viability, T/C (second compound 3.16 µM, first compound 3.16 µM) was 2.71% and the viability, T/C (second compound 3.16 µM, first compound 10 µM) was 2.41%. For the same compound, the viability, T/C [21] was 3.24%, the viability, T/C [22] was 1.86% and the viability, T/C [23] was 2.94%. For the same compound, the viability, T/C [24] was 2.31%, the viability, T/C (second compound 10 µM, first compound 3.16 µM) was 2.71% and the viability, T/C (second compound 10 µM, first compound 10 µM) was 1.85%.
